Tested on: HK82-SOS
Assay: REAP mutagenesis assay, HK82-SOS cells
Type: cell-based, E. coli
Settings: (b) HK82-SOS
Source text: All E. coli strains used in this work contain the F′ episome, which enables infection by M13 phage. GW5100 strain was used for large scale preparation of M13 phage DNA, SCS 110 (JM110, end Al) was used for amplification of progeny phage post-electroporation, and NR9050 was the strain of choice for double agar plating with X-GAL for blue-clear detection of plaques. The E. coli strains used to replicate lesion-containing phage were HK81 (as AB1157, but nalA) and HK82 (as AB1157, but nalA alkB22; AlkB-deficient).
Lesion-containing genomes were mixed with the competitor genome (80:20 molar ratio) and electroporated in triplicate into 100 μl competent cells using a 2 mm-gap cuvette and a BTX electroporator set to 2.5 kV and 125 a Typical pulse lengths were 4.9 msec. The cells were immediately transferred to 10 ml LB and an aliquot was immediately plated using the agar overlay method to verify that a minimum of 10^5 independent initial electroporation events occurred in 10 ml of culture. Incubation for 6 h at 37° C. with aeration generated the progeny phage, which were then reamplified in SCS 110 cells (10 μl overnight culture and 100 μl of the 6 h supernatant in 10 ml LB) to dilute out the residual genomic DNA used for electroporation. Single-stranded M13 progeny phage DNA was isolated from 1.4 ml of supernatant using a Q1Aprep Spin M13 Kit with final DNA suspension in 100 μl elution buffer. CRAB forward and reverse primers were used to amplify the region of interest from 15 μl per Q1Aprep elution sample in a total volume of 25 μl containing 50 pmol of each primer, 1×Pfu Turbo buffer, 1.25 U Pfu Turbo DNA polymerase and […] of each dNTP. The PCR program used 30 cycles of 67° C. (1 min) annealing and 72° C. (1 min) extensions. After purification using QIAQUICK PCR purification columns, 4 μl of the PCR product were treated with BbsI (1.5 U) and SAP (0.3 U) in a total volume of 6 μl by incubating at 37° C. for 4 h. After phosphatase inactivation, (80° C. for 5 min), the 5′ ends were then radiolabeled using [γ-^32P]-ATP (1.66 pmol, 10 μCi/μl, 6000 Ci/mmol), cold ATP (16 pmol) and 5 U of OPTIKINASE at 37° C. for 30 min. Following the kinase inactivation at 65° C. for 20 min, the labeled product was then trimmed by HaeIII (10 U in a final volume of 10 μl) at 37° C. for 2 h, and diluted 1:1 in formamide loading dye. PAGE separation on a 20% denaturing gel, run for about 3.5 h at 550 V, until the xylene cyanol dye migrated 10.5 cm, yielded two bands for each sample: an 18-mer originating from the lesion-containing genome and a 21-mer originating from the competitor genome. The gels were visualized on a phosphorimager (Typhoon 7000, GE Healthcare Life Sciences); the band intensities were quantified using IMAGEJ software (National Institutes of Health). Lesion bypass was calculated as the percentage ratio of the intensity of the 18-mer band (lesion signal) to the intensity of the 21-mer band (competitor signal).
The REAP assay methodology is identical to the CRAB assay except for the PCR primers, which amplified only the progeny DNA originating from the lesion-carrying genomes. Following electrophoresis, the 18-mer bands were excised from the gel, crushed and extracted with 200 μl water. After desalting with SEPHADEX G-50 Fine resin spin columns, the samples were lyophilized to dryness, resuspended in 5 μl containing 1 μg P1 Nuclease in 30 mM sodium acetate (pH 5.3) and 10 mM zinc chloride, and incubated at 50° C. for 1 h. One μl of each sample was then spotted onto PEI-TLC plates and separated using 200 ml of a saturated solution of (NH4)2HPO4 adjusted to pH 5.8. After 24 h of development, the TLC plates were air-dried and quantified using phosphorimagery. […]

Compound | Mutagenicity, Average % A [%] | Mutagenicity, Average % C [%] | Mutagenicity, Average % G [%] | Mutagenicity, Average % T [%]
NC1=NC(=O)N([C@H]2C[C@H](O)[C@@H](CO)O2)CN1 [KP1212, 5-aza-5,6-dihydro-2′-deoxycytidine] | 0.1 | 89.4 | 0.2 | 10.3
Nc1ccn([C@H]2C[C@H](O)[C@@H](CO)O2)c(=O)n1 [dC, deoxycytidine] | 0.1 | – | 0.0 | 0.0

— patent publication US9283242B2, “Uses of dihydro bases” (priority 2013, dated 2016)
